The term MIC denotes the smallest concentration in the dilution series that meets the test's criterion for growth inhibition. Low readings indicate greater potency, high ones weaker potency.

For series [1] the following is noted: when administered to humans; cited from earlier work.
For series [2], the system named is several strains of Prototheca wickerhamii and Prototheca zopfii. Conditions: previous study on susceptibility, Non-Patent Document 1; cited from earlier work.
A further series deals with Prototheca blaskeae. Briefly: Broth microdilution MIC assay, CLSI M27-A3 guideline. It counts as cell-based. Conditions: strain NUBS19005, bovine protothecal mastitis; 32 degrees, 72 hours. The procedure: (§1) For Prototheca wickerhamii, isolates (1 cat strain and 2 dog strains) were obtained from dogs and cats suffering from a prototheca disease. For Prototheca zopfii, bovine prototheca mastitis isolates (Genotype 2, 10 strains) and environmental isolates (Genotype 1, 10 strains) were obtained. For Prototheca blaskeae, a prototheca mastitis isolate (1 strain) was obtained. For Prototheca zopfii, the drug susceptibility was tested also on Genotype 1 established strain (SAG20063^T) and Genotype 2 established strain (SAG2021^T).
(§2) The isolates were maintained on Yeast Extract-Peptone-Dextrose agar (YPD: 1% yeast extract, 2% peptone, 2% dextrose, 2% agar) and tested for antifungal susceptibility. The susceptibility of the isolates to the antifungal agents itraconazole (ITZ, Merck KGA) and ravuconazole (RVZ, selenium pharma) was measured using a trace liquid dilution method (broth microdilution assay) according to the CLSI M27-A3 guideline. The minimum inhibitory concentration (MIC) was measured after culturing at 32 degrees for 72 hours. MIC was defined as the lowest concentration that induces significant inhibition of growth (inhibition of about 50% or more). As a control, Candida parapsilosis ATCC 22019 obtained from ATCC was used, and the MIC assay of the CLSI M27-A3 test was performed.
A general note: Dilution methods test growth across graded concentrations, often in twofold steps.

Another series concerns Prototheca wickerhamii. Described as above. The class given is cell-based. Conditions: for MICs: 32 degrees, 72 hours. The procedure:
as §1, §2

The test system of series [3] is Prototheca zopfii Genotype 1. The series is described as above. The class given is cell-based. Conditions: for MICs: 32 degrees, 72 hours. Here is the method: as §1, §2
In series [4] the test system is Prototheca zopfii Genotype 2. The series is described as above. The class given is cell-based. Conditions: 32 degrees, 72 hours. The procedure: as §1, §2
In series [5] the test system is Candida parapsilosis ATCC 22019. In words: MIC assay of the CLSI M27-A3 test, control strain. It counts as cell-based. Here is the method: as §2
In a further series the test system is prototheca species. In words: Overall comparison of anti-algae effect against prototheca species. It counts as cell-based. The procedure:
as §2

The mark [6] stands for this setting: strain NUBS19001, feline protothecosis.
Where [7] appears, read: strain NUBS19002, canine protothecosis.
Setting [8] is: strain NUBS19003, canine protothecosis.
Where [9] appears, read: strain NUBS19004, environment (GT1).
The mark [10] stands for this setting: strain SAG2063T, type strain of (GT1).
Where [11] appears, read: strain A7, bovine protothecal mastitis (GT2).
Where [12] appears, read: strain A8, bovine protothecal mastitis (GT2).
Setting [13] is: strain A9, bovine protothecal mastitis (GT2).
[14] abbreviates: strain A10, bovine protothecal mastitis (GT2).
[15] abbreviates: strain A11, bovine protothecal mastitis (GT2).
Where [16] appears, read: strain A13, bovine protothecal mastitis (GT2).
Where [17] appears, read: strain A14, bovine protothecal mastitis (GT2).
Setting [18] is: strain A15, bovine protothecal mastitis (GT2).
[19] abbreviates: strain A16, bovine protothecal mastitis (GT2).
Where [20] appears, read: strain A17, bovine protothecal mastitis (GT2).
Setting [21] is: strain SAG2021T, type strain of GT2.

Values after ≈ are worked out from the molar mass of the structure shown.

In the case of `C[C@@H](c1nc(-c2ccc(C#N)cc2)cs1)[C@@](Cn1cncn1)(OCOP(=O)(O)O)c1ccc(F)cc1F` [Fosravuconazole, fosravuconazole], the “conversion of prodrug to ravuconazole” value in series [1] was “rapidly converted to ravuconazole”.
`C[C@@H]1[C@H](O)[C@@H](C)/C=C/C=C/C=C/C=C/C=C/C=C/C=C/[C@H](O[C@@H]2O[C@H](C)[C@@H](O)[C@H](N)[C@@H]2O)C[C@@H]2O[C@](O)(C[C@@H](O)C[C@@H](O)[C@H](O)CC[C@@H](O)C[C@@H](O)CC(=O)O[C@H]1C)C[C@H](O)[C@H]2C(=O)O` [AMB, amphotericin B]: the “effectiveness against several strains of Prototheca wickerhamii and Prototheca zopfii” value in series [2] was “not effective”.
For the compound gentamicin, the “effectiveness against several strains of Prototheca wickerhamii and Prototheca zopfii” value in series [2] was “not effective”.
Regarding ravuconazole [RVZ], the MICs was 0.03 mg/L against Prototheca blaskeae; 0.03 mg/L with Prototheca wickerhamii (setting [6]); 0.03 mg/L in the series with Prototheca wickerhamii (setting [7]); 0.03 mg/L in the series with Prototheca wickerhamii (setting [8]); 0.03 mg/L in series [3] (strain I1, environment (GT1)); 0.03 mg/L in series [3] (strain I3, environment (GT1)). Moreover, the MICs in series [3] (setting [9]) is 0.03 mg/L; in series [3] (strain S2, environment (GT1)), 0.03 mg/L; in series [3] (strain S3, environment (GT1)) it was 0.03 mg/L; in series [3] (strain S29, environment (GT1)), 0.03 mg/L; in series [3] (strain S36, environment (GT1)), 0.03 mg/L; in series [3] (strain S42, environment (GT1)) it was 0.03 mg/L. Besides, the MICs in series [3] (setting [10]) is 0.03 mg/L; in series [3] (strain W3, environment (GT1)), 0.03 mg/L; in series [3] (strain W20, environment (GT1)), 0.03 mg/L; in series [4] (setting [11]), 0.125 mg/L; in series [4] (setting [12]), 0.03 mg/L; in series [4] (setting [13]), 0.03 mg/L. Besides, the MICs in series [4] (setting [14]) is on record as 0.03 mg/L; in series [4] (setting [15]) it was 0.25 mg/L; in series [4] (setting [16]), 0.125 mg/L; in series [4] (setting [17]), 0.03 mg/L; in series [4] (setting [18]), 0.0625 mg/L; in series [4] (setting [19]) it was 0.03 mg/L. Further, the MICs is reported as 0.25 mg/L in series [4] (setting [20]) and 0.125 mg/L in series [4] (setting [21]). The “MIC of the three clinical isolates of Prototheca wickerhamii” value with Prototheca wickerhamii (summary over three clinical isolates) stood at 0.03 µg/mL. In series [3] (summary over 11 isolates of Genotype 1), the “MIC of 11 isolates of Genotype 1 of Prototheca zopfii” value was found to be 0.03 µg/mL. The “MIC for the control strain Candida parapsilosis ATCC 22019” value in series [5] is 0.03 µg/mL. In addition, in the series with prototheca species (versus itraconazole), the “effectiveness (anti-algae effect) compared with itraconazole against pathogen of prototheca species” value is listed as “more effective”. Further, the “activity compared with publicly known results of kanamycin, gentamicin, amphotericin B and itraconazole against prototheca species” value in the series on prototheca species (versus publicly known results of KM, GM, AMB, ITZ) was “stronger activity”.
For the compound `CCC(C)n1ncn(-c2ccc(N3CCN(c4ccc(OCC5COC(Cn6cncn6)(c6ccc(Cl)cc6Cl)O5)cc4)CC3)cc2)c1=O` (stereo not shown) [ITZ, itraconazole], the MICs in the series on Prototheca blaskeae is reported as 32 mg/L; against Prototheca wickerhamii (setting [6]), more than 32 mg/L; against Prototheca wickerhamii (setting [7]) it was more than 32 mg/L; in the series on Prototheca wickerhamii (setting [8]) it was 4 mg/L; in series [3] (strain I1, environment (GT1)), 2 mg/L; in series [3] (strain I3, environment (GT1)), 0.25 mg/L. The MICs is reported as 1 mg/L in series [3] (setting [9]); 32 mg/L in series [3] (strain S2, environment (GT1)); 8 mg/L in series [3] (strain S3, environment (GT1)); more than 32 mg/L in series [3] (strain S29, environment (GT1)); 16 mg/L in series [3] (strain S36, environment (GT1)); 8 mg/L in series [3] (strain S42, environment (GT1)). In addition, the MICs in series [3] (setting [10]) was 1.5 mg/L; in series [3] (strain W3, environment (GT1)) it was 4 mg/L; in series [3] (strain W20, environment (GT1)) it was 4 mg/L; in series [4] (setting [11]) it was 32 mg/L; in series [4] (setting [12]), 4 mg/L; in series [4] (setting [13]), more than 32 mg/L. Also, the MICs is more than 32 mg/L in series [4] (setting [14]); more than 32 mg/L in series [4] (setting [15]); more than 32 mg/L in series [4] (setting [16]); more than 32 mg/L in series [4] (setting [17]); more than 32 mg/L in series [4] (setting [18]); 8 mg/L in series [4] (setting [19]). In addition, the MICs in series [4] (setting [20]) was 4 mg/L; in series [4] (setting [21]), more than 32 mg/L. This compound came in with an MIC in series [5] (Lodderomyces parapsilosis, ATCC22019) of 0.125 µg/mL (≈ 0.177 µM).

Source of the values: patent US12508248B2, “Therapeutic agent for prototheca disease” (priority 2019, dated 2025).
